Several values for one entry are separate records, joined by “and”; a condition that tells them apart may be missing. Equal values may be shown once.
Experiment: Drug-excipient compatibility study
Conditions: binary drug/excipient mixture, 40° C./75% RH open bottle; sodium salt
From the text: This study was designed to evaluate the effects of various diluents, binders, disintegrants, lubricants, buffering agents, and antioxidants on the stability of the drug substance.

SMILES: Cc1cc2c(cc1CC(=O)c1sccc1S(=O)(=O)[N-]c1onc(C)c1Cl)OCO2.[Na+] [Sitaxsentan Sodium, N-(4-chloro-3-methyl-5-isoxazolyl)-2-[2-methyl-4,5-(methylenedioxy)phenylacetyl]-thiophene-3-sulfonamide, sodium salt]
- Assay (%) T = 2 Weeks: 98.0%
- Total Related Substanes (%) T = 2 Weeks: 0.19% and 0.18%
- Total Related Substanes (%) T = 4 Weeks: 0.24% and 0.12%

— patent publication US20080076812A1 (priority 2006, published 2008)
